Like-named read-outs stand apart in the source and are kept apart here.
How the values were obtained:
rat NaCT [1] = target: T1, rat NaCT (Rattus norvegicus, UniProt Q8CJ44); assay: Uptake via rat NaCT expressed in HRPE cells; type: cell-based; conditions: for [^14C]Citrate uptake (cDNA-specific) / [^14C]Citrate uptake, %: [14C]citrate 14 μM, unlabeled compound 2.5 mM; for [^14C]Citrate uptake, %: none = 100; for Uptake in rat NaCT cDNA-transfected cells vs vector alone: succinate 80 nM, pyruvate 135 μM, citrate 35 μM, Na+ gradient
T1 sequence (Q8CJ44 1-572): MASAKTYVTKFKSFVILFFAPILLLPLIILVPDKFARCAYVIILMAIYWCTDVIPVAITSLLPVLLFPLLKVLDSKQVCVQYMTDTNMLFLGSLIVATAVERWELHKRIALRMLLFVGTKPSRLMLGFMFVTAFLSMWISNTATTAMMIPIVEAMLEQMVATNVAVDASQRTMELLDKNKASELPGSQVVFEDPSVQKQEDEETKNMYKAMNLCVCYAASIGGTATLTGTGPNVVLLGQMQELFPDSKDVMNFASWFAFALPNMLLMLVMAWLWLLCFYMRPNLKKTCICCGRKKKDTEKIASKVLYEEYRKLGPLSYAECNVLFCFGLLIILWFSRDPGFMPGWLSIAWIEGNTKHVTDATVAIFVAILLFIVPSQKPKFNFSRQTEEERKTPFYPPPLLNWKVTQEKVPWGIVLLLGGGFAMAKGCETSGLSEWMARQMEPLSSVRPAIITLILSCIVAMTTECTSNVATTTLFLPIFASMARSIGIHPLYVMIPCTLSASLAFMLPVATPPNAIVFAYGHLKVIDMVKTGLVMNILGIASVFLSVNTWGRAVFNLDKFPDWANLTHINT

hNaDC3 = target: T2, hNaDC3 (Homo sapiens, UniProt Q8WWT9)
T2 sequence (Q8WWT9 1-602): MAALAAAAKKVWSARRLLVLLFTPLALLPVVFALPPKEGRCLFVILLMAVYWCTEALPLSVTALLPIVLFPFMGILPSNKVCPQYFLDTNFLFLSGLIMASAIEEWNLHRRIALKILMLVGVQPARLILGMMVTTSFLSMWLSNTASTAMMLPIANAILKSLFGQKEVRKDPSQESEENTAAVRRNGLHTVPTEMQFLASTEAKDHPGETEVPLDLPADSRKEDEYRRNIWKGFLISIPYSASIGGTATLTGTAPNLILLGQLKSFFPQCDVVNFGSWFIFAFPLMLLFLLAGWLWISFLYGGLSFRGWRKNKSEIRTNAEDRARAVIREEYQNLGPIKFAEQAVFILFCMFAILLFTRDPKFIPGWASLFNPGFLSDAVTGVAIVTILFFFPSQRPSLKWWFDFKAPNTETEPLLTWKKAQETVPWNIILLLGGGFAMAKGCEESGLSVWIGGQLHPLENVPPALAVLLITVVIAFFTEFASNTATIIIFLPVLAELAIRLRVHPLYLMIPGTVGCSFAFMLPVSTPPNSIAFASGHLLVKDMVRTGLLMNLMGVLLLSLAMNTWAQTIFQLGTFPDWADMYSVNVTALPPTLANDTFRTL

rat NaCT [2] = target: T1, rat NaCT; assay: Rat NaCT in X. laevis oocytes, voltage clamp and charge-to-substrate ratio; type: cell-based; conditions: for Charge-to-substrate ratio: 50 μM substrate, −50 mV, 10 min
ceNaCT = target: T3, ceNaCT (Caenorhabditis elegans, UniProt P32739, I91S/L182M); assay: Uptake via ceNaCT expressed in HRPE cells; conditions: for Competition with [^14C]citrate for ceNaCT-mediated uptake: competitor 2.5 mM, [14C]citrate 15 μM
T3 sequence (P32739 1-551 I91S/L182M): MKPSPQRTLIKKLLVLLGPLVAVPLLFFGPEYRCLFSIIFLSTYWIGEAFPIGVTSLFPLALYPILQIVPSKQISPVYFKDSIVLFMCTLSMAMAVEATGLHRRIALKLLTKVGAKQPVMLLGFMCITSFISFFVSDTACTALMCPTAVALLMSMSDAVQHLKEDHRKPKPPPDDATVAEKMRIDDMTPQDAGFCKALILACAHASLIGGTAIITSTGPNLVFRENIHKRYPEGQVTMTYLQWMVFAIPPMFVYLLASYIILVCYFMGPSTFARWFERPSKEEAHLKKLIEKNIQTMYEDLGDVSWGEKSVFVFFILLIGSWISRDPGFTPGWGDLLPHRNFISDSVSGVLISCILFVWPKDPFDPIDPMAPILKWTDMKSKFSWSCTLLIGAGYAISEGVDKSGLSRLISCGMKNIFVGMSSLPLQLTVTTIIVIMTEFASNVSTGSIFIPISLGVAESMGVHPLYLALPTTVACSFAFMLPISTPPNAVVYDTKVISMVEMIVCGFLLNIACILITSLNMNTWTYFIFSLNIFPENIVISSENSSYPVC

human NaCT = human NaCT (Homo sapiens, UniProt Q86YT5); assay: Uptake via human NaCT expressed in HRPE cells; type: cell-based; conditions: for [^14C]-Citrate Uptake (cDNA-specific) / [^14C]-Citrate Uptake, %: [14C]-citrate 20 μM, unlabeled compound 2.5 mM; for [^14C]-Citrate Uptake, %: none = 100
human NaCT, sequence (Q86YT5 whole entry): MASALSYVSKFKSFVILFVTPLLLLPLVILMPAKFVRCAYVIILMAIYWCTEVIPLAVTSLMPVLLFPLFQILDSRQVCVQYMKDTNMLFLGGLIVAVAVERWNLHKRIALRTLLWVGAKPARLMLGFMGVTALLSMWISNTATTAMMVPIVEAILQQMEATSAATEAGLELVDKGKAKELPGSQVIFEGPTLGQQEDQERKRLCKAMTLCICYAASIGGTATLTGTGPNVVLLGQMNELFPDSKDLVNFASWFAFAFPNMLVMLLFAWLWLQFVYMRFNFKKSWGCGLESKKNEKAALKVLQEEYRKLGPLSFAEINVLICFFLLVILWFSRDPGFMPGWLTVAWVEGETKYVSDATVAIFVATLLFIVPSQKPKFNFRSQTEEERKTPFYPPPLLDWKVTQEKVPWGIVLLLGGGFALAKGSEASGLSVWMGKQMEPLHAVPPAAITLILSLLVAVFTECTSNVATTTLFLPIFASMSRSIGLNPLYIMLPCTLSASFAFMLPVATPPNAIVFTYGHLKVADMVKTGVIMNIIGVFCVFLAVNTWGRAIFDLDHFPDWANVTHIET

drIndy = drIndy (Drosophila melanogaster, UniProt Q9VVT2); conditions: for % Control of cDNA-specific [^3H]succinate uptake / cDNA-specific [^3H] succinate uptake: [3H]succinate 40 nM, inhibitor 2.5 mM; for cDNA-specific [^3H] succinate uptake: NaCl buffer pH 7.5; for Uptake in drIndy cDNA-transfected cells vs vector alone / Succinate uptake mediated by drIndy: succinate 40 nM
drIndy, sequence (Q9VVT2 19-590): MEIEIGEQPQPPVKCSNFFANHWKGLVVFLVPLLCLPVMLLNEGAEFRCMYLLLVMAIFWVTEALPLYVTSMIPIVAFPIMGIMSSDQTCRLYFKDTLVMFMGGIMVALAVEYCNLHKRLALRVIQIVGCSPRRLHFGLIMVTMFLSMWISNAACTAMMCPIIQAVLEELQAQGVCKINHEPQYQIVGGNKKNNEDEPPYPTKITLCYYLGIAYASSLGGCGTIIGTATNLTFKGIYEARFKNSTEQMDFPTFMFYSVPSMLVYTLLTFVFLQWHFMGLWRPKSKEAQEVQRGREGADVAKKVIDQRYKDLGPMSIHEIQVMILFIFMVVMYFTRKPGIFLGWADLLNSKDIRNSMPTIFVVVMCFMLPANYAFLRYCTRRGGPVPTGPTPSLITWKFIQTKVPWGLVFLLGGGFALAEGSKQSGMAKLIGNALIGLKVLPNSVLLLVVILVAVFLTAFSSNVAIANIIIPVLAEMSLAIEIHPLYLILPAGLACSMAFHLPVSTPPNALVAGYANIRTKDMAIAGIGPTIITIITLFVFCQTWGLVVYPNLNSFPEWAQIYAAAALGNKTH

zebrafish NaCT = zebrafish NaCT (Danio rerio, UniProt A0A2R8QQN0, K78Q); assay: Citrate uptake via zebrafish NaCT expressed in HRPE cells; type: cell-based
zebrafish NaCT, sequence (A0A2R8QQN0 2-582 K78Q): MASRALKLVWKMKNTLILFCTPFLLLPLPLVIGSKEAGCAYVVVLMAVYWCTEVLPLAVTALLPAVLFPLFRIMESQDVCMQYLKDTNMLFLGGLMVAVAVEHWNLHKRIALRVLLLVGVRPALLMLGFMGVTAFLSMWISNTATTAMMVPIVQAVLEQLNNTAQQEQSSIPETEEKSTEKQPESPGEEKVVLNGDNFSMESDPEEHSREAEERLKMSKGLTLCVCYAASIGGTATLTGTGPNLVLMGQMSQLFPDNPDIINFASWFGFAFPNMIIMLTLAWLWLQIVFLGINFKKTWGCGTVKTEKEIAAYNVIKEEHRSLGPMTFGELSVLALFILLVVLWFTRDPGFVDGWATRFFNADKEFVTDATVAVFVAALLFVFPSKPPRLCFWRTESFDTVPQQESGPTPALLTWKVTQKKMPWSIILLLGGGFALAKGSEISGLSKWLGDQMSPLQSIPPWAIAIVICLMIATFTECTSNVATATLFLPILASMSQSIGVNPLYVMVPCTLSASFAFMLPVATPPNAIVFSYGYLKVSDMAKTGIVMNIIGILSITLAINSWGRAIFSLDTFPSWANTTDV

[3] = presence of Na+, citrate 35 μM, pyruvate 135 μM

SMILES	IC50 (rat NaCT [1]) [µM]	Ki (rat NaCT [1]) [µM]	[^14C]Citrate uptake (cDNA-specific) (rat NaCT [1]) [Pmol/10^6 cells/min]	[^14C]Citrate uptake, % (rat NaCT [1]) [%]	Uptake in rat NaCT cDNA-transfected cells vs vector alone (rat NaCT [1])	Charge-to-substrate ratio (rat NaCT [2])	Competition with [^14C]citrate for ceNaCT-mediated uptake (ceNaCT)	Vmax for transport via ceNaCT (ceNaCT; pH 7.5) [pmol/10^6 cells/min]	IC50 (human NaCT) [µM]	[^14C]-Citrate Uptake (cDNA-specific) (human NaCT) [pmol/10^6 cells/min]	[^14C]-Citrate Uptake, % (human NaCT) [%]	% Control of cDNA-specific [^3H]succinate uptake (drIndy) [%]	cDNA-specific [^3H] succinate uptake (drIndy) [fmol/106 cells per min]	Uptake in drIndy cDNA-transfected cells vs vector alone (drIndy; [3])	IC50 (zebrafish NaCT) [µM]	also measured
O=C(O)CC(O)(CC(=O)O)C(=O)O [Citrate]	28 ± 4	16 ± 2	1.5 ± 0.1	1	approximately 90 fold	1	potent inhibitor	270±13	688 ± 150	7.7 ± 0.7	16	13	18.6 ± 3.0	approximately 30 fold	30 ± 4	Kt (Michaelis-Menten constant) for citrate uptake via rat NaCT (rat NaCT [1]): 18 ± 4 µM; Lower affinity of hNaDC3 than drIndy for citrate (hNaDC3): 20 fold; Currents in rat NaCT oocytes compared to mouse NaCT (rat NaCT [2]; 0.5 mM citrate): 3 fold; Citrate-induced current (rat NaCT [2]; 0.5 mM citrate, three oocytes): 87±8 nA; Uptake in ceNaCT-expressing cells vs vector-transfected control cells (ceNaCT; [14C]citrate 10 μM, Na+, pH 7.5): approximately 45 fold; Uptake of [^14C]citrate in cells expressing ceNaCT (ceNaCT; citrate 10 μM, Na+, pH 7.5): 61±5 pmol/10^6 Cells/min; Kt for citrate via human NaCT in the presence of Li+ (human NaCT; 10 mM Li+): 95 ± 15 µM; Uptake in human NaCT cDNA-transfected cells vs vector alone (human NaCT; citrate 20 μM, NaCl): about 23 fold; Affinity of human NaCT for citrate less than that of rat NaCT (human NaCT; identical assay conditions): about 30 fold; Kt (Michaelis-Menten constant) for citrate uptake via human NaCT (human NaCT; wild type, absence of Li+): 604 ± 73 µM; Km (zebrafish NaCT; read-out: Michaelis constant for citrate uptake, hrpe cells, 30 min): 40 ± 4 µM
O=C(O)CCC(=O)O [Succinate, succinate]	172 ± 24	98 ± 14	5.7 ± 0.2	5	about 7 fold	2	inhibited markedly	210±8	1920 ± 480	32.1 ± 3.6	67	6	4.6 ± 0.4	20 fold	51 ± 9	Affinity of rat NaCT for succinate lower than for citrate (rat NaCT [1]): 6 fold; Succinate uptake at physiological concentrations (rat NaCT [1]; medium with 135 μM citrate and 40 μM succinate): 0.005±0.001 nmol/10^6 cells/minute; Uptake in hNaDC3 cDNA-transfected cells vs vector (hNaDC3; succinate 40 nM, presence of Na+): 200 fold; Km (ceNaCT; read-out: Michaelis-Menten constant (Kt) for transport via ceNaCT, pH 7.5, 30 min): 88 ± 13 µM; Uptake in drIndy cDNA-transfected cells vs vector alone (drIndy; absence of Na+): 15 fold; Km (drIndy; read-out: Michaelis-Menten constant (Km) for transport via drIndy, presence of Na+): 40 ± 4 µM; Succinate uptake mediated by drIndy (drIndy; pH 5): 52±2 fmol/10^6 cells per minute; Succinate uptake mediated by drIndy (drIndy; pH 8): 127±5 fmol/10^6 cells per minute
